Measurements as given in ChEMBL document CHEMBL3593212, “Synthesis and evaluation of novel 1H-pyrrolo[2,3-b]pyridine-5-carboxamide derivatives as potent and orally efficacious immunomodulators targeting JAK3” (Bioorg Med Chem, 2015).
pIC50: −log10 of the molar value.

Experiments:
[1] = AUC (0 to 24 hrs) in Sprague-Dawley rat at 1 mg/kg, iv by LC/MS/MS method; format: ADME, organism-based; parameters: dose 1 mg/kg, time < 24 hr, route intravenous; details: in vivo
[2] = target: Tyrosine-protein kinase ZAP-70 (Homo sapiens, UniProt P43403); assay: Inhibition of ZAP70 (unknown origin)
Tyrosine-protein kinase ZAP-70, sequence (P43403 whole entry): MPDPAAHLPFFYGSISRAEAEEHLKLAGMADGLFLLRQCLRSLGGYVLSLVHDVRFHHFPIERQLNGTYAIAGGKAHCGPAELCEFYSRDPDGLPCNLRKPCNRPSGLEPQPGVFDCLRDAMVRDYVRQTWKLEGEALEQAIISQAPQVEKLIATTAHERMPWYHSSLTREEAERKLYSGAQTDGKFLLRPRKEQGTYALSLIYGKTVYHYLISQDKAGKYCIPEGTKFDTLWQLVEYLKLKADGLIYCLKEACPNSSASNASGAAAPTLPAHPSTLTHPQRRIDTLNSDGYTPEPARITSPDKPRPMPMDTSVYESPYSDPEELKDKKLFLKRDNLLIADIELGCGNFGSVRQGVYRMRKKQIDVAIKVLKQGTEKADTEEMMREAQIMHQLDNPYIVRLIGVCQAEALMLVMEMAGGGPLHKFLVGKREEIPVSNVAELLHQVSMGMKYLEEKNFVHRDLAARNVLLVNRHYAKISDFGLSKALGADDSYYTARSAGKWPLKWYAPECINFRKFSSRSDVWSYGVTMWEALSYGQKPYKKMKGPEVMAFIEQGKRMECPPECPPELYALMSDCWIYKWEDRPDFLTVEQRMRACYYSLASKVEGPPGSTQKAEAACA

[3] = Inhibition of JAK1/JAK3 in Lewis rat splenocytes assessed as reduction in IL2-stimulated T-cell proliferation incubated for 3 days by alamar blue dye based fluorescence assay; details: 72 h
[4] = Half life in beagle dog at 1 mg/kg, iv by LC/MS/MS method; format: ADME, organism-based, Canis lupus familiaris; details: in vivo
Rattus norvegicus [5] = assay: (§1) Inhibition of allograft rejection in Lewis rat vascularized heterotopic cardiac transplantation model using ACI rat as cardiac donor assessed as mean survival time by measuring cardiac allograft function by daily palpation for 28 days at 10 and 20 mg/kg, po administered beginning on day of operation once daily for 14 consecutive days (reference value: 5 days); format: functional, organism-based
[6] = Total clearance in beagle dog at 1 mg/kg, iv by LC/MS/MS method; format: ADME, organism-based, Canis lupus familiaris; details: in vivo
[7] = target: Tyrosine-protein kinase JAK1 (Homo sapiens, UniProt P23458); assay: Inhibition of human JAK1 kinase domain using biotin-Lyn-substrate-2 as substrate incubated for 1 hr by ELISA method
Tyrosine-protein kinase JAK1, sequence (P23458 whole entry, the tested form may be a part): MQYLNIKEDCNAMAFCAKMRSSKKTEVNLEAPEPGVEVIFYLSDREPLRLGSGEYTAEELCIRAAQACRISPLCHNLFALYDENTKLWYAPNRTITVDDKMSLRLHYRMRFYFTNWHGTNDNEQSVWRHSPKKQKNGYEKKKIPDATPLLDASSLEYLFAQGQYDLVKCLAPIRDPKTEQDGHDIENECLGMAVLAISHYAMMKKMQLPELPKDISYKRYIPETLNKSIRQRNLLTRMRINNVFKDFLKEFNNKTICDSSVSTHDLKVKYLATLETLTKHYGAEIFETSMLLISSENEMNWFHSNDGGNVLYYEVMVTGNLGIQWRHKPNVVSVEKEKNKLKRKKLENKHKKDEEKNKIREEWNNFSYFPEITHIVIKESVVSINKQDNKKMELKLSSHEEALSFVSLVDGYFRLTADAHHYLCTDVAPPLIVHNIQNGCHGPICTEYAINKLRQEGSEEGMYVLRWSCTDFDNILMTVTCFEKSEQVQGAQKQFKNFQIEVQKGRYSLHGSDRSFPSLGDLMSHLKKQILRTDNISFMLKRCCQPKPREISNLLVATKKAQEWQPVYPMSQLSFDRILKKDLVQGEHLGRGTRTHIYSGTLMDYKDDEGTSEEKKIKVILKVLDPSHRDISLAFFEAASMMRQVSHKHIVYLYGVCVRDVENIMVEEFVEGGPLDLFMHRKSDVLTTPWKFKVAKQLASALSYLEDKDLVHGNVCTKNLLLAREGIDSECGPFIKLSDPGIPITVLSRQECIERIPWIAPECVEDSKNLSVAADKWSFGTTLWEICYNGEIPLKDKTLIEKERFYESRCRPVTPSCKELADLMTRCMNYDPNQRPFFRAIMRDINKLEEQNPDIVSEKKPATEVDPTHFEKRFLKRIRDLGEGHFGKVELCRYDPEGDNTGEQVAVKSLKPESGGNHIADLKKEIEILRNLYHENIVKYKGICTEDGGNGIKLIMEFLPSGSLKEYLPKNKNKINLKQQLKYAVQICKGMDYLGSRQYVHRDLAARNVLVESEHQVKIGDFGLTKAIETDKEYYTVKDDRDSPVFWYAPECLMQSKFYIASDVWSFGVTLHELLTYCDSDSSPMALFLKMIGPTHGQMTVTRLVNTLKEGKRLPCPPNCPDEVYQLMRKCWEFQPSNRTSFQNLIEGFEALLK

[8] = target: Insulin-like growth factor 1 receptor (Homo sapiens, UniProt P08069); assay: Inhibition of IGF1R (unknown origin)
[9] = Intrinsic clearance in beagle dog liver microsomes at 0.2 uM in presence of NADPH generating system by LC/MS/MS method; format: ADME, Canis lupus familiaris; details: read-out: CLH
[10] = target: Glycogen synthase kinase-3 beta (Homo sapiens, UniProt P49841); assay: Inhibition of GSK3beta (unknown origin)
Glycogen synthase kinase-3 beta, sequence (P49841 whole entry): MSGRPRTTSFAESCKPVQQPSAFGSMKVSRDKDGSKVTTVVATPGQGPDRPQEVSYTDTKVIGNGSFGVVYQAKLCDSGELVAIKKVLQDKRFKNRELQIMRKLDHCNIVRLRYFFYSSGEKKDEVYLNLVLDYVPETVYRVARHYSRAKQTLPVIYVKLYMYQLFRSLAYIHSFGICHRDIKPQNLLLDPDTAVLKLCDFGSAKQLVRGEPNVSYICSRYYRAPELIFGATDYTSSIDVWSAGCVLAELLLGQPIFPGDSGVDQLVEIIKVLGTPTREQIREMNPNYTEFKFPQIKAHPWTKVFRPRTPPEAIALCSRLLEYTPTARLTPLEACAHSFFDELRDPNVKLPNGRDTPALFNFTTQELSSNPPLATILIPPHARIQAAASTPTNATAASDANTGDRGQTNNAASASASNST

[11] = Half life in Sprague-Dawley rat at 1 mg/kg, iv by LC/MS/MS method; format: ADME, organism-based; details: in vivo
[12] = target: Tyrosine-protein kinase Tec (Homo sapiens, UniProt P42680); assay: Inhibition of TEC (unknown origin)
Tyrosine-protein kinase Tec, sequence (P42680 whole entry): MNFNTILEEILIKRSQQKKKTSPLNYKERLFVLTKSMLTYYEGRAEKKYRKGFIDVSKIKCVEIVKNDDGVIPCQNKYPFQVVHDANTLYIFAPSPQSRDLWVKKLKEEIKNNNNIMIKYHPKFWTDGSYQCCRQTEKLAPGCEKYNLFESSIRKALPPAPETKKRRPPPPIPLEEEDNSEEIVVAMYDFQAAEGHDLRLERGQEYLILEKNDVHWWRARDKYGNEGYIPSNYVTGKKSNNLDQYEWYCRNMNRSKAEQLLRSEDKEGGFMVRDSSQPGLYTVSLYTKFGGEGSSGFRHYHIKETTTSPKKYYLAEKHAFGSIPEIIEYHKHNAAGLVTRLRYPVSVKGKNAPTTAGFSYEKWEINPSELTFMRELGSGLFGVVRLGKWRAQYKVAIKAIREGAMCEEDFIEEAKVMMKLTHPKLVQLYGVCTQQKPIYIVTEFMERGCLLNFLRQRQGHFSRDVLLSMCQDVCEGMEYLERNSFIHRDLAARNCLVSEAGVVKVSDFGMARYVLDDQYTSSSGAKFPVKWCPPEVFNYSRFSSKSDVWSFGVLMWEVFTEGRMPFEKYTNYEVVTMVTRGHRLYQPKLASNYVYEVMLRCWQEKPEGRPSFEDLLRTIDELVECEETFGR

Rattus norvegicus [13] = assay: as §1, with “10” for “10 and 20”; format: functional
[14] = Oral bioavailability in beagle dog at 3 mg/kg by LC/MS/MS method; format: ADME, organism-based, Canis lupus familiaris; details: in vivo
[15] = Effective permeability of the compound at pH 7.4 by PAMPA method; format: physicochemical; details: read-out: Peff
[16] = target: Calcium/calmodulin-dependent protein kinase type II subunit alpha (Homo sapiens, UniProt Q9UQM7); assay: Inhibition of CaMK2a (unknown origin)
Calcium/calmodulin-dependent protein kinase type II subunit alpha, sequence (Q9UQM7 whole entry): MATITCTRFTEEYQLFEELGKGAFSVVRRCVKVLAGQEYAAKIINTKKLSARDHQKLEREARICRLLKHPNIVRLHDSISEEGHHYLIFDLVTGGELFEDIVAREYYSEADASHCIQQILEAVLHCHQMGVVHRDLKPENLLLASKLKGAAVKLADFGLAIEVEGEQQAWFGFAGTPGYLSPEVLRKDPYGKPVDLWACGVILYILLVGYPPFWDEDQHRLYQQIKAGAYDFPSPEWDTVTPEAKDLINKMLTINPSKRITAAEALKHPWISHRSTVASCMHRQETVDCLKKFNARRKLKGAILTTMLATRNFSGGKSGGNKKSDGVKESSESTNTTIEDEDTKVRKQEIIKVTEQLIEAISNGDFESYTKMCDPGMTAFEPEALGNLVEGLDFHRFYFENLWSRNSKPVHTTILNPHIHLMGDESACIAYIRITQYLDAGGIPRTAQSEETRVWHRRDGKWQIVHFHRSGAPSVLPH

[17] = target: Interleukin-1 receptor-associated kinase 4 (Homo sapiens, UniProt Q9NWZ3); assay: Inhibition of IRAK4 (unknown origin)
Interleukin-1 receptor-associated kinase 4, sequence (Q9NWZ3 whole entry): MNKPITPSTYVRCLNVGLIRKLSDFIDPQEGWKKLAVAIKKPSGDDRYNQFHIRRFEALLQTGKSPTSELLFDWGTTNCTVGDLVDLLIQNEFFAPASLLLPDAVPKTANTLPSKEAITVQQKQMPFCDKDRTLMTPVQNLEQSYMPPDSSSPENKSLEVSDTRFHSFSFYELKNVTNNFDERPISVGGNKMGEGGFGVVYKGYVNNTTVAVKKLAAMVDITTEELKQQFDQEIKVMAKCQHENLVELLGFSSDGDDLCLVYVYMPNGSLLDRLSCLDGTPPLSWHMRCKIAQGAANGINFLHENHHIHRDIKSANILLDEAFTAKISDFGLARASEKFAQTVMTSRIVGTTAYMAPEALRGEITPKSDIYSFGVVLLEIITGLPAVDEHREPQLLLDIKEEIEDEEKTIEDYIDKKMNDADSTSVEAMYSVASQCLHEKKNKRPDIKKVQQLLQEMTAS

[18] = Total clearance in cynomolgus monkey at 1 mg/kg, iv by LC/MS/MS method; format: ADME, organism-based, Macaca fascicularis; details: in vivo

Structure (SMILES): N#Cc1ccc(N2CC[C@@H](Nc3c(C(N)=O)cnc4[nH]ccc34)[C@@H](F)C2)nc1
- AUC(0-t) at 24 h [1]: 3200 ng·h/mL
- pIC50 [2]: < 6.00
- pIC50 [3]: 7.96
- half-life [4]: 4.2 h
- inhibition (Rattus norvegicus [5]): Dose-dependent effect
- clearance [6]: 3 mL/min/kg
- pIC50 [7]: 8.39
- pIC50 [8]: < 6.00
- CLint scaled at 0.2 µM [9]: 18.8 mL/min/kg
- pIC50 [10]: 6.01
- half-life [11]: 3 h
- pIC50 [12]: < 6.00
- MST (Rattus norvegicus [13]): 11.5 days
- bioavailability [14]: 49.1%
- Papp [15]: 9 ×10⁻⁶ cm/s
- pIC50 [16]: 6.00
- pIC50 [17]: < 6.00
- clearance [18]: 3.8 mL/min/kg
